Data set [1] deals with SMN2 minigene (full length SMN2 minigene mRNA containing SMN2 exon 7). Put plainly: SMN2 minigene mRNA splicing RT-qPCR assay in cultured cells. The format is cell-based, human. The note with it: Homo sapiens, HEK293-H; HEK293H cells stably transfected with SMN2-A minigene; 24 hours; 7-point concentration curve; 1.5-fold relative to vehicle-treated cells; read-out: EC1.5x for production of full length SMN2 mRNA. In outline:
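Lysates → one-step RT-qPCR, minigene-specific primers (0.4 μM final) + GAPDH multiplex, 40 cycles. FL/GAPDH vs DMSO; EC1.5x, star-binned.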

For a further data set, the system named is Smn protein. Put plainly: Smn protein assay in cultured cells (SMN HTRF). The format is cell-based, human. The note with it: 48 hours; for maximum fold (Fold) increase of Smn protein: SMA patient fibroblast cells, 7-point concentration data, fold increase relative to vehicle control (SMN HTRF); for EC1.5x (concentration giving 1.5-fold Smn protein increase): SMA Type 1 patient fibroblast cells (GM03813), 7-point concentration curve, SMN HTRF, concentration producing 1.5 times Smn protein vs DMSO vehicle control, read-out: EC1.5x for Smn protein expression. In outline:
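Smn in SMA fibroblast lysates, measured by anti-SMN HTRF after 48 h compound exposure; EC1.5x from fold change over vehicle.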

Data on 26 compounds can be found in USRE47689E1, “Compounds for treating spinal muscular atrophy” (PTC Therapeutics, Inc., priority 2011, dated 2019).

In general, melting point refers to the temperature of the solid-liquid transition.

Structures are written as SMILES. Structures can show the parent of a compound that is named as a salt.

Consider `Cc1cn2cc(-c3cc4ccc(C5=CCNCC5)cc4oc3=O)nc2c(C)n1`, for which the melting point is 205 to 211 °C.
For `O=c1oc2cc(OC3CCNC3)ccc2cc1-c1cn2cccnc2n1` (stereo in doubt) (as salt: hydrochloride) [Cpd 321, 3-(imidazo[1,2-a]pyrimidin-2-yl)-7-[(3R)-pyrrolidin-3-yloxy]-2H-chromen-2-one hydrochloride (1:2)], the melting point was 240 to 250 °C.
On the same count and under the same terms, to `Cl.O=c1oc2cc(N3CCNCC3)ccc2cc1-c1nc2cccc(C(F)(F)F)c2o1` belongs 297 to 307 °C.
The same measure, in the same setting: to `O=C(Nc1ccccc1)c1cc2ccc(N3CCNCC3)cc2oc1=O` (as salt: trifluoroacetate) [Cpd 3, 2-oxo-N-phenyl-7-(piperazin-1-yl)-2H-chromene-3-carboxamide trifluoroacetate] belongs 238 to 248 °C; to `O=c1oc2cc(N3C[C@@H]4C[C@H]3CN4)ccc2cc1-c1cn2cccnc2n1` (as salt: hydrochloride) [Compound 129, 7-[(1S,4S)-2,5-diazabicyclo[2.2.1]hept-2-yl]-3-(imidazo[1,2a]pyrimidin-2-yl)-2H-chromen-2-one hydrochloride (1:3)], greater than 300 °C.
As for `O=c1oc2cc(N3CC4CC3CN4)ccc2cc1-c1nc2ccccc2o1` (stereo not drawn) [Compound 85, 3-(1,3-benzoxazol-2-yl)-7-(2,5-diazabicyclo[2.2.1]hept-2-yl)-2H-chromen-2-one], the EC (1.5-fold) in data set [1] was 3 to 30 µM. The “maximum fold (Fold) increase of Smn protein” value (“maximum fold (Fold) increase” below) in the data set with Smn protein is recorded as “* (maximum fold increase of ≤1.2)”.
As for `Cc1cn2cc(-c3cc4ccc(N5CCNCC5)cc4oc3=O)nc2c(C)n1` [Compound 515, 3-(6,8-dimethylimidazo[1,2-a]pyrazin-2-yl)-7-(piperazin-1-yl)-2H-chromen-2-one], the EC (1.5-fold) in data set [1] was less than 0.1 µM. In addition, in the data set on Smn protein, the EC1.5x (concentration giving 1.5-fold Smn protein increase) was less than 300 nM and the “maximum fold (Fold) increase” value was “***** (fold increase >1.65)”.
Turning to `CN(C)CCN(C)c1ccc2cc(-c3nc4ccccc4o3)c(=O)oc2c1` [Compound 49, 3-(1,3-benzoxazol-2-yl)-7-{[2-(dimethylamino)ethyl](methyl)amino}-2H-chromen-2-one], the EC (1.5-fold) in data set [1] was 3 to 30 µM. Also, in the data set with Smn protein, the “maximum fold (Fold) increase” value was “* (maximum fold increase of ≤1.2)”.
As for `COCCNCCOc1ccc2cc(-c3cn4cc(C)nc(C)c4n3)c(=O)oc2c1` [Compound 960, 3-(6,8-dimethylimidazo[1,2-a]pyrazin-2-yl)-7-{2-[(2-methoxyethyl)amino]ethoxy}-2H-chromen-2-one], the EC (1.5-fold) in data set [1] was less than 0.1 µM. In addition, in the data set on Smn protein, the EC1.5x (concentration giving 1.5-fold Smn protein increase) is 1000 to 3000 nM; the “maximum fold (Fold) increase” value is “*** (fold increase between >1.35 and ≤1.5)”.
Consider `Cc1cn2cc(-c3cc4ccc(N5CCC(C#N)CC5)cc4oc3=O)nc2c(C)n1` [Compound 974, 1-[3-(6,8-dimethylimidazo[1,2-a]pyrazin-2-yl)-2-oxo-2H-chromen-7-yl]piperidine-4-carbonitrile], for which, in data set [1], the EC (1.5-fold) lay within 3 to 30 µM. The “maximum fold (Fold) increase” value in the data set on Smn protein is “** (fold increase between >1.2 and ≤1.35)”.
In the case of `O=c1oc2cc(N3CCNCC3)ccc2cc1-c1nc2c(Cl)cccc2s1` [Cpd 5, 3-(4-chloro-1,3-benzothiazol-2-yl)-7-(piperazin-1-yl)-2H-chromen-2-one hydrochloride], the EC (1.5-fold) in data set [1] was in the range of 0.3 to 1 µM. The “maximum fold (Fold) increase” value in the data set on Smn protein is recorded as “* (maximum fold increase of ≤1.2)”.
Take `Cc1cn2cc(-c3cc4ccc(N5CC(CN)C5)cc4oc3=O)nc2c(C)n1` [Compound 963, 7-[3-(aminomethyl)azetidin-1-yl]-3-(6,8-dimethylimidazo[1,2-a]pyrazin-2-yl)-2H-chromen-2-one]: the EC (1.5-fold) in data set [1] was in the range of 0.3 to 1 µM. Moreover, the “maximum fold (Fold) increase” value in the data set on Smn protein was “*** (fold increase between >1.35 and ≤1.5)”.
As to `O=c1oc2cc(N3CCNCC3)ccc2cc1-c1cc(C(F)(F)F)ccn1` [Compound 76, 7-(piperazin-1-yl)-3-[4-(trifluoromethyl)pyridin-2-yl]-2H-chromen-2-one], the EC (1.5-fold) in data set [1] lay within 1 to 3 µM. In addition, the “maximum fold (Fold) increase” value with Smn protein was “* (maximum fold increase of ≤1.2)”.
On to `Cc1cn2cc(-c3cc4ccc(N[C@H]5CCNC5)cc4oc3=O)nc2c(C)n1` [Cpd 563, 3-(6,8-dimethylimidazo[1,2-a]pyrazin-2-yl)-7-[(3S)-pyrrolidin-3-ylamino]-2H-chromen-2-one], for which the EC (1.5-fold) in data set [1] was less than 0.1 µM. In the data set with Smn protein, the EC1.5x (concentration giving 1.5-fold Smn protein increase) is less than 300 nM and the “maximum fold (Fold) increase” value is reported as “***** (fold increase >1.65)”.
For the compound `Cc1nccc(-c2cc3ccc(N4CCN(C)CC4)cc3oc2=O)n1` [Compound 297, 7-(4-methylpiperazin-1-yl)-3-(2-methylpyrimidin-4-yl)-2H-chromen-2-one], in data set [1], the EC (1.5-fold) was 3 to 30 µM. Also, the “maximum fold (Fold) increase” value in the data set with Smn protein is on record as “* (maximum fold increase of ≤1.2)”.
As for `Cc1cn2cc(-c3cc4ccc(N5CCN[C@@H](C(C)C)C5)cc4oc3=O)nc2c(C)n1` [Compound 808, 3-(6,8-dimethylimidazo[1,2-a]pyrazin-2-yl)-7-[(3S)-3-(propan-2-yl)piperazin-1-yl]-2H-chromen-2-one], the EC (1.5-fold) in data set [1] is less than 0.1 µM. In the data set with Smn protein, the EC1.5x (concentration giving 1.5-fold Smn protein increase) was less than 300 nM; the “maximum fold (Fold) increase” value is “**** (fold increase between >1.5 and ≤1.65)”.
As for `Cc1cccc2oc(-c3cc4ccc(N5CCNCC5)cc4oc3=O)nc12.Cl` [Compound 22, 3-(4-methyl-1,3-benzoxazol-2-yl)-7-(piperazin-1-yl)-2H-chromen-2-one hydrochloride], the EC (1.5-fold) in data set [1] lay in the range of 3 to 30 µM. The “maximum fold (Fold) increase” value in the data set on Smn protein is reported as “* (maximum fold increase of ≤1.2)”.
Take `Cc1nc2ccc(-c3cc4ccc(N5CCN[C@@H](C)C5)cc4oc3=O)cc2s1` [Compound 770, 3-(2-methyl-1,3-benzothiazol-6-yl)-7-[(3S)-3-methylpiperazin-1-yl]-2H-chromen-2-one]: the EC (1.5-fold) in data set [1] is less than 0.1 µM. For the same compound, in the data set on Smn protein, the EC1.5x (concentration giving 1.5-fold Smn protein increase) is less than 300 nM; the “maximum fold (Fold) increase” value was “**** (fold increase between >1.5 and ≤1.65)”.
For `Cc1cccn2cc(-c3cc4ccc(N5C[C@H](C)NC[C@H]5C)cc4oc3=O)nc12` [Compound 166, 7-[(2R,5S)-2,5-dimethylpiperazin-1-yl]-3-(8-methylimidazo[1,2-a]pyridin-2-yl)-2H-chromen-2-one], in data set [1], the EC (1.5-fold) fell in the range of 1 to 3 µM. For the same compound, the “maximum fold (Fold) increase” value with Smn protein was “** (fold increase between >1.2 and ≤1.35)”.
In the case of `O=c1oc2cc(N3CCNCC3)ccc2cc1-c1nc2ncccc2o1` [Compound 110, 3-([1,3]oxazolo[4,5-b]pyridin-2-yl)-7-(piperazin-1-yl)-2H-chromen-2-one hydrochloride], the EC (1.5-fold) in data set [1] fell in the range of 3 to 30 µM. Further, in the data set on Smn protein, the “maximum fold (Fold) increase” value was “** (fold increase between >1.2 and ≤1.35)”.
For `Cc1cn2cc(-c3cc4ccc(N5CCCN(C(C)C)CC5)cc4oc3=O)cc2cn1` [Compound 753, 3-(3-methylpyrrolo[1,2-a]pyrazin-7-yl)-7-[4-(propan-2-yl)-1,4-diazepan-1-yl]-2H-chromen-2-one], the EC (1.5-fold) in data set [1] was less than 0.1 µM. Besides, in the data set on Smn protein, the EC1.5x (concentration giving 1.5-fold Smn protein increase) was in the range of 1000 to 3000 nM; the “maximum fold (Fold) increase” value is “*** (fold increase between >1.35 and ≤1.5)”.
`Cc1nc(Cl)cn2cc(-c3cc4ccc(N5C[C@@H]6C[C@H]5CN6C)cc4oc3=O)nc12` [Compound 787, 3-(6-chloro-8-methylimidazo[1,2-a]pyrazin-2-yl)-7-[(1S,4S)-5-methyl-2,5-diazabicyclo[2.2.1]hept-2-yl]-2H-chromen-2-one]: the EC (1.5-fold) in data set [1] is less than 0.1 µM. In the data set on Smn protein, the EC1.5x (concentration giving 1.5-fold Smn protein increase) lay in the range of 300 to 1000 nM; the “maximum fold (Fold) increase” value was “*** (fold increase between >1.35 and ≤1.5)”.
For the compound `CCc1nc(C)cn2cc(-c3cc4ccc(N5CCNCC5)cc4oc3=O)nc12` [Compound 824, 3-(8-ethyl-6-methylimidazo[1,2-a]pyrazin-2-yl)-7-(piperazin-1-yl)-2H-chromen-2-one], the EC (1.5-fold) in data set [1] was less than 0.1 µM. In the data set on Smn protein, the EC1.5x (concentration giving 1.5-fold Smn protein increase) is less than 300 nM; the “maximum fold (Fold) increase” value was “**** (fold increase between >1.5 and ≤1.65)”.
On to `C[C@H]1CN(c2ccc3cc(-c4ccc5nccn5c4)c(=O)oc3c2)CCN1` [Compound 981, 3-(imidazo[1,2-a]pyridin-6-yl)-7-[(3S)-3-methylpiperazin-1-yl]-2H-chromen-2-one], for which the EC (1.5-fold) in data set [1] lay in the range of 0.1 to 0.3 µM. Besides, in the data set with Smn protein, the EC1.5x (concentration giving 1.5-fold Smn protein increase) was in the range of 1000 to 3000 nM; the “maximum fold (Fold) increase” value is “**** (fold increase between >1.5 and ≤1.65)”.
In the case of `Cc1cn2cc(-c3cc4ccc(N5CC6(CNC6)C5)cc4oc3=O)nc2c(C)n1` [Cpd 971, 7-(2,6-diazaspiro[3.3]hept-2-yl)-3-(6,8-dimethylimidazo[1,2-a]pyrazin-2-yl)-2H-chromen-2-one], the EC (1.5-fold) in data set [1] is less than 0.1 µM. Besides, in the data set on Smn protein, the EC1.5x (concentration giving 1.5-fold Smn protein increase) is less than 300 nM and the “maximum fold (Fold) increase” value is on record as “***** (fold increase >1.65)”.
`CSc1nccn2cc(-c3cc4ccc(N5CCCN(C)CC5)cc4oc3=O)nc12` [Compound 401, 7-(4-methyl-1,4-diazepan-1-yl)-3-[8-(methylsulfanyl)imidazo[1,2-a]pyrazin-2-yl]-2H-chromen-2-one]: the EC (1.5-fold) in data set [1] lay in the range of 1 to 3 µM. Moreover, the “maximum fold (Fold) increase” value in the data set with Smn protein was “* (maximum fold increase of ≤1.2)”.
